Literature values, collected in patent publication US20230165842A1, “NEW USES” (priority 2020, published 2023).
Read-outs that look alike come from different tables or passages of the source.

Experiments:
SARS-CoV-2 [1] = system: SARS-CoV-2
SARS-CoV-2 [2] = settings: Vero cells; 2 h pre-treatment; vs DMSO control; p<0.0001
[3] = system: hospitalised Covid-19 patients
[4] = system: adults with confirmed SARS-CoV-2 infection
COVID-19 cases = settings: conclusion for the named statins
SARS-CoV-2 [5] = system: SARS-CoV-2; set-up: Reducing Viral propagation: concentration or dose not given beside the values; settings: Vero E6; MOI=0.0005
SARS-CoV-2 [6] = settings: Vero E6; for IC50: 2 h pre-treatment, 24 h
Vero E6 cells = settings: Vero E6
SARS-CoV-2 [7] = settings: Calu-3
SARS-CoV-2 [8] = settings: Vero E6
OC43 [9] = system: OC43
OC43 [10] = settings: maximal across all concentrations
SARS-CoV-2 [11] = system: SARS-CoV-2; remark: listed apart in the source
[12] = system: dysgeusia in COVID positive patients
[13] = system: SARS-CoV-2 Spike pseudotyped virus; settings: ACE2h HEK293T cells; Control = 1
SARS-CoV-2 [14] = settings: concentration dependent; data not shown
[15] = system: patients hospitalized with COVID-19; settings: With Calcifediol Treatment (n = 50)
[16] = system: COVID-19-induced pulmonary fibrosis
[17] = system: human coronavirus (HCoV)-229E; settings: MRC5 cells
SARS-CoV-2 [18] = settings: Vero-E6; MOI 0.005
SARS-CoV-2 [19] = settings: treated 24 hours prior to infection; read-out: IC50 in Calu-3
[20] = six weeks after initiation of therapy

## OCc1c[nH]c2ccccc12 [Compound 110, indole-3-carbinol]
SARS-CoV-2 [1]; 16.67 and 5.56 μM
  SARS-CoV-2-induced CPE: not affected
SARS-CoV-2 [1]; Vero E6, 50 μM, 72 h post-infection, vs DMSO
  reduced the SARS-CoV-2-induced CPE: about 60%
SARS-CoV-2 [1]; at the various concentrations tested
  virus yield reduction: 2 to 4 log

## maraviroc [Compound 170]
SARS-CoV-2 [2]
  decrease in viral load: 30.7 fold

## COc1cc(Nc2ncc(F)c(Nc3ccc4c(n3)N(COP(=O)(O)O)C(=O)C(C)(C)O4)n2)cc(OC)c1OC [Compound 35, fostamatinib]
[3]; Phase II, oral twice-daily plus SOC for 14 days
  primary endpoint of safety: met the primary endpoint of safety
[3]; by day 15 and 29
  improvement in clinical status: superior to placebo
[3]; two patients receiving drug
  outcome of intubated patients on mechanical ventilation: improved in seven days and were off the ventilator
[3]; vs placebo
  chances of occurrence of serious adverse events: halved
[3]; vs seven in the placebo group
  number of days in the ICU: three
[3]; vs three deaths in the placebo arm
  deaths: No deaths

## COCCCC/C(=N\OCCN)c1ccc(C(F)(F)F)cc1 [Compound 34, fluvoxamine]
Covid positive patients; 0 of 65, vs 12.5% with observation
  incidence of subsequent hospitalization: 0%
Covid positive patients; 0 of 65, vs 60% with observation alone
  ongoing symptoms present at day 14: 0%
Covid positive patients; 50 mg twice daily for 14 days
  serious adverse events: No serious adverse events
Covid positive patients; Day 1, N = 65
  Respiratory Rate: 17.7 ± 2.9
Covid positive patients; Day 7, N = 65
  Respiratory Rate: 12.9 ± 1.6
Covid positive patients; N = 65
  Hospitalized within 14 days (patients): 0
  ICU care and/or Death (patients): 0
  Symptoms at Day 14: 1-3 (patients): 0
  Symptoms at Day 14: 4-6 (patients): 0
  Symptoms at Day 14: None (patients): 65
  Symptoms at Day 14: ≥7 (patients): 0
Covid positive patients; human, in vivo
  adverse events leading to early discontinuation: No adverse events led to early discontinuation
[4]; fluvoxamine group, placebo 6
  serious adverse event (number): 1
[4]; fluvoxamine group, placebo 12
  other adverse events (number): 11
[4]; fluvoxamine vs placebo
  Absolute difference (95% CI), any nonzero value: −8.3%
  Absolute difference (95% CI), clinical deterioration: 8.7%
  Absolute difference (95% CI), clinical status 0 (none): 8.3%
  Absolute difference (95% CI), clinical status mean: −0.22
[4]; n = 80
  Clinical status on 7-point scale, mean (SD): 0
  Clinical status on 7-point scale: 0 (none), No. (%): 80 (100)
  Clinical status on 7-point scale: Any nonzero value, No. (%): 0
[4]; n = 80, 100 mg 3 times daily for 15 days
  Primary end point Clinical deterioration (met both criteria), No. (%): 0

## CC(C)c1c(C(=O)Nc2ccccc2)c(-c2ccccc2)c(-c2ccc(F)cc2)n1CC[C@@H](O)C[C@@H](O)CC(=O)O [Compound 8, atorvastatin]
COVID-19 cases
  mortality in patients infected with COVID-19: may reduce mortality

## NC1(c2ccc(-c3nc4ccn5c(=O)[nH]nc5c4cc3-c3ccccc3)cc2)CCC1 [Compound 173, mk-2206]
SARS-CoV-2 [5]
  IC50: 0.09 µM
  Reducing Viral propagation: 88%

## O=C1NCN(c2ccccc2)C12CCN(CCCC(c1ccc(F)cc1)c1ccc(F)cc1)CC2 [Compound 158, fluspirilene]
SARS-CoV-2 [6]; MOI 0.004
  Selectivity Index (SI): 9.61
  IC50: 6.36 µM
SARS-CoV-2 [6]; MOI 0.01
  Selectivity Index (SI): >5.71
  IC50: 5.32 µM
Vero E6 cells; listed as MOI 0.004
  CC50: 30.3 µM
Vero E6 cells; listed as MOI 0.01
  CC50: 30.3 µM

## O=C(Nc1ccc([N+](=O)[O-])cc1Cl)c1cc(Cl)ccc1O [Reference Compound 3, niclosamide]
SARS-CoV-2 [5]
  IC50: 17 µM
  Reducing Viral propagation: >99%

## C[C@H]1[C@H](OC(=O)CCC(=O)O)O[C@@H]2O[C@@]3(C)CC[C@H]4[C@H](C)CC[C@@H]1[C@@]24OO3 [Compound 145, artesunate]
SARS-CoV-2 [7]
  IC50: 1.76 µM
  Selectivity Index (SI): >56.82
Vero E6
  CC50: > 100 µM
SARS-CoV-2 [8]
  IC50: 53.1 µM
  Selectivity Index (SI): >1.885
Calu-3
  CC50: > 100 µM

## saracatinib [Compound 112]
OC43 [9]
  OC43 viral replication: inhibition also observed
OC43 [10]
  Max % Inhibition of Viral Killing: 22.48%
SARS-CoV-2 [11]
  SARS-CoV-2 viral replication: inhibition also observed

## CCN(CCO)CCCC(C)Nc1ccnc2cc(Cl)ccc12 (centres unmarked) [Reference Compound 5, hydroxychloroquine]
SARS-CoV-2 [7]
  IC50: 103 µM
  Selectivity Index (SI): >0.972
SARS-CoV-2 [2]
  decrease in viral load: 26.9 fold
Vero E6; Vero E6
  CC50: > 100 µM
SARS-CoV-2 [8]
  IC50: 1.07 µM
  Selectivity Index (SI): >93.55
Calu-3; Calu-3
  CC50: > 100 µM

## CC(C)c1nc(N(C)S(C)(=O)=O)nc(-c2ccc(F)cc2)c1/C=C/[C@@H](O)C[C@@H](O)CC(=O)O [Compound 64, rosuvastatin]
COVID-19 cases
  mortality in patients infected with COVID-19: may reduce mortality

## C[C@]12C=CC(=O)C=C1CC[C@H]1[C@@H]3C[C@@H](O)[C@](O)(C(=O)CO)[C@@]3(C)C[C@H](O)[C@@]12F [Compound 72, triamcinolone]
[12]; Cases (n = 60), day 5
  bitter identified: NO (patients): 7
  bitter identified: YES (patients): 53
  salt identified: NO (patients): 10
  salt identified: YES (patients): 50
  sour identified: NO (patients): 10
  sour identified: YES (patients): 50
  sweet identified: NO (patients): 5
  sweet identified: YES (patients): 55
[12]; all anosmia and dysgeusia cases
  recovery of sense of smell taste: recovered their sense of smell taste within a week
[12]; oral paste, fifth day
  improved for bitter: 83.33%
  improved for salty taste: 83.33%
  improved for sour taste: 83.34%
  improved for sweet: 91.67%

## Clc1ccc2c(c1)CCc1cccnc1C2=C1CCNCC1 [Compound 80, desloratadine]
[13]
  pseudotype entry (mean): 0.3

## CC(=O)OCOC(=O)CN(CC(=O)OCOC(C)=O)c1ccccc1OCCOc1ccccc1N(CC(=O)OCOC(C)=O)CC(=O)OCOC(C)=O [compound 15, BAPTA-AM]
SARS-CoV-2 [14]
  inhibition of SARS-CoV-2 replication: significantly inhibit

## CS(=O)(=O)CCNCc1ccc(-c2ccc3ncnc(Nc4ccc(OCc5cccc(F)c5)c(Cl)c4)c3c2)o1 [Compound 187, lapatinib]
OC43 [9]
  OC43 viral replication: strongly inhibited
OC43 [10]
  Max % Inhibition of Viral Killing: 63.99%
SARS-CoV-2 [11]
  SARS-CoV-2 viral replication: strongly inhibited
SARS-CoV-2 [11]; at doses readily achievable in human tissues, data not shown
  toxicity: without any toxicity
SARS-CoV-2 [11]; data not shown
  inhibited SARS-CoV-2 replication: over 50,000 fold

## C=C1CC[C@H](O)C/C1=C/C=C1\CCC[C@]2(C)[C@@H]([C@H](C)CCCC(C)(C)O)CC[C@@H]12 [Calcifediol, calcifediol]
[15]
  Not requiring ICU, n (%): 49 (98)
  Requiring ICU, n (%): 1 (2)

## NCCOB(c1ccccc1)c1ccccc1 [compound 16]
SARS-CoV-2 [14]
  inhibition of SARS-CoV-2 replication: significantly inhibit

## COc1cc([C@@H]2c3cc4c(cc3[C@@H](O[C@@H]3O[C@@H]5CO[C@@H](C)O[C@H]5[C@H](O)[C@H]3O)[C@H]3COC(=O)[C@H]23)OCO4)cc(OC)c1O [Compound 137, etoposide]
COVID-19 ARDS patients; 11 patients, 50-150 mg/m^2
  PaO2/FiO2 ratio improved, average: 195%
COVID-19 ARDS patients; of 11 patients
  patients fully recovered and discharged home: Nine
  patients needed mechanical ventilation: Three
COVID-19 ARDS patients; of 11 patients, thrombotic complications
  patients died: Two

## COC(=O)c1ccc2c(c1)NC(=O)/C2=C(\Nc1ccc(N(C)C(=O)CN2CCN(C)CC2)cc1)c1ccccc1 [Compound 134, nintedanib]
[16]; 300 mg/day oral, managed with reduction to 200 mg/day
  serum level of alanine aminotransferase (adverse event): became elevated
[16]; FIG. 29-D
  Ground-glass opacities of the lung (CT): mildly attenuated without further progression of pulmonary fibrosis
[16]; after three months of rehabilitation with drug and tapering of prednisolone
  respiratory condition and exercise tolerance: improved
[16]; in vivo
  other side effects: No other side effects
[16]; [20]
  vital capacity: 1.27 L
  vital capacity per predicted: 61.7%

## CCN(CC)CCCC(C)Nc1ccnc2cc(Cl)ccc12 (centres unmarked) [Reference Compound 1, chloroquine]
[17]
  EC50: 5 µM
  reduction of the viral titer: 60%
SARS-CoV-2 [6]; MOI 0.004
  IC50: 42 µM
SARS-CoV-2 [6]; MOI 0.01
  IC50: 46.8 µM
SARS-CoV-2 [18]
  EC50: 1.36 µM
SARS-CoV-2 [19]
  IC50: 69.2 µM

## COc1ccc2nc3cc(Cl)ccc3c(Nc3cc(CN4CCCC4)c(O)c(CN4CCCC4)c3)c2n1 [Reference Compound 4, pyronaridine]
SARS-CoV-2 [7]
  IC50: 6.41 µM
  Selectivity Index (SI): 6.718
Vero E6; Vero E6
  CC50: 37.1 µM
SARS-CoV-2 [8]
  IC50: 1.08 µM
  Selectivity Index (SI): 34.22
Calu-3; Calu-3
  CC50: 43.1 µM

## NCCCCNCCCN [Reference Compound 2, spermidine]
SARS-CoV-2 [5]
  IC50: 149 µM
  Reducing Viral propagation: 85%
